Laboratory results: US20260309621A1, “HIGH THROUGHPUT OPTICAL ASSAY FOR SCREENING HEMOGLOBIN OXYGEN AFFINITY MODIFYING DRUG” (CASE WESTERN RESERVE UNIVERSITY, priority 2023, published 2026)
One block for each molecule: values may come before it.

How the values were obtained:
[1] = test system: HbAA and HbSS whole blood; test: pO2 reduction in whole blood by Na2S2O5 (blood gas analyzer); parameters: species or system human
Experimental: All samples were initially exposed to ambient air for 600 seconds. The oxygen partial pressure (pO2), 21% of atmospheric pressure (773 mmHg), was then normalized to 162 mmHg PO2 during oxygenation (FIG. 7A). Sodium metabisulphite (Na2S2O5) was used to deoxygenate the samples chemically (FIG. 7B). Predetermined amounts of sodium metabisulphite were mixed with 2 ml of the prepared samples for 90 seconds using a vortexer (Scientific Industries, Bohemia, NY). The concentrations of Na2S2O5 used with purified hemoglobin were 0.039 M, 0.046 M, 0.053 M, 0.059 M, 0.066 M, 0.079 M, and 0.082 M, which corresponded to a gradual reduction in the oxygen partial pressure in the samples. For whole blood and RBC analyses, we used 0.053 M of Na2S2O (17-fold more molecules than Hb molecules in solution) to achieve partial deoxygenation (Table 1). A blood gas analyzer (Nova Starter Pro, Nova BioMed, Boston, Massachusetts) was used to confirm the deoxygenation levels at those Na2S2O5 concentrations.
We used sodium metabisulphite (Na2S2O5) to deoxygenate purified hemoglobin, intact RBCs, or whole blood (FIGS. 7A & B). […] At elevated concentrations of Na2S2O5, corresponding to high levels of deoxygenation or pO2 close to 30 mmHg, the curve plateaus (FIG. 8).

HbSS patient whole blood = test: Peak wavelength shift of whole blood from SCD patients stratified by treatment; parameters: species or system human
Experimental: Blood samples were collected from healthy donors and individuals with SCD as part of standard clinical care. We received ethical approval from the University Hospitals of Cleveland Medical Center's Institutional Review Board (IRB) and Joint Clinical Research Ethics Committee in Kampala, Uganda, for the Naïve SCD group. All participants in the study provided written informed consent. When collected, blood samples were de-identified, kept at 4 degrees Celsius, and processed within 6 hours of receipt. […] Hemoglobin profiles of samples were verified using the reference standard high performance liquid chromatography (HPLC, VARIANT™ II, Bio-Rad Laboratories, Inc., Hercules, California). […] Intracellular hemoglobin concentration for all blood samples was measured under normoxia with complete blood count (CBC, Hemavet 950FS, Hematology System, Draw Scientific Inc.; Miami, Florida).
During testing with either oxygenation or deoxygenation, samples were analyzed in three microplate wells using a spectroscopy microplate reader Spectramax M2e (Molecular Devices, San Jose, CA), over a spectral range of 350-750 nm, with a wavelength resolution of 2 nm and at a customized microplate well reading setting at room temperature. […] (3) For each sample and at concentration of 0.053 M Na2S2O5, the bathochromic wavelength shift and intensity were assessed for further analysis (FIG. 7D). […]

HbSS = molecular target: T1, HbSS (Homo sapiens, UniProt P68871+P69905, E7V); test: 96-well high throughput optical absorption assay: Soret band peak wavelength shift of deoxygenated SCD samples treated with oxygen modifying molecules; type: biochemical
T1 construct: whole blood, washed red cells or purified hemoglobin
Text: FIGS. 3(A-C) illustrate varying concentration of voxelotor tested using 96 well plates optical assay. (A) Representative 96 well plate, showing the arrangement of a single sample analyzed. […] (B) Insert from the 12 columns of the 96 well plate, showing the Soret band peak wavelength shift in the wavelength range of 380-450 nm.
FIGS. 4(A-B) illustrate increasing the concentration of voxelotor induces a decrease in the peak wavelength of SCD samples (A) Insert from the 12 columns of the 96 well plate, showing the Soret band peak wavelength shift in the wavelength range of 380-450 nm.
FIGS. 5(A-B) illustrate varying concentration of PKR activator tested using 96 well plates optical assay. (A) Insert from the 12 columns of the 96 well plate, showing the Soret band peak wavelength shift in the wavelength range of 380-450 nm.
FIGS. 6(A-B) illustrate varying concentrations of aptamer induce peak wavelength shift. (A) Soret band peak wavelength shifts for oxygenated blood with aptamer deoxygenated blood with aptamer, untreated blood, and voxelotor treatment were compared in the wavelength range of 350-450. Increasing the concentration of aptamer from 0.2 dosages (B) Increasing the concentration of aptamer from 0.2 dosages to 0.25 induces a reduction in peak wavelength from 416 nm to 414 nm.
This example relates to a 96-well high throughput assay optical absorption spectroscopic assay that can be used to assess the rate of oxygen release from hemoglobin.
Whole blood, purified hemoglobin, or washed red blood cells (RBCs) are mixed with a buffer solution at 6.8 or 8. Additional hemoglobin or RBCs to an acidic buffer changes the molecular conformational structure of hemoglobin. Determined volume of the analyte (including but not limited to whole blood, purified hemoglobin, or red blood cells (RBCs)) are mixed with buffer are added to each of the 12/96/384 well plates. The analytes are then chemically deoxygenated with a determined concentration of sodium metabisulphite an approach to deplete oxygen from hemoglobin molecules. The solution is analyzed using a spectroscopic microplate reader. […]

hemoglobin (HbAA, HbSS) = test: Hemoglobin-oxygen dissociation assay (Soret band bathochromic shift with partial chemical deoxygenation by Na2S2O5); type: biochemical, human; settings: for Peak wavelength: pH 6.9, pO2 = 75 mmHg, mean ± SEM; for peak wavelength, repeatability: ~20 mmHg pO2, mean ± SEM
Text: Herein, we take advantage of the unique optical shift of Hb's Soret band and combine it with partial chemical deoxygenation to optically measure Hb-O2 dissociation under physiologically acidic conditions at pH 6.9.
Blood samples were collected from healthy donors and individuals with SCD as part of standard clinical care. We received ethical approval from the University Hospitals of Cleveland Medical Center's Institutional Review Board (IRB) and Joint Clinical Research Ethics Committee in Kampala, Uganda, for the Naïve SCD group. All participants in the study provided written informed consent. When collected, blood samples were de-identified, kept at 4 degrees Celsius, and processed within 6 hours of receipt. […] Hemoglobin profiles of samples were verified using the reference standard high performance liquid chromatography (HPLC, VARIANT™ II, Bio-Rad Laboratories, Inc., Hercules, California). The results were presented as a percentage of HbS, A2, and F; the remainder was considered HbA since the values were normalized to 100%. Intracellular hemoglobin concentration for all blood samples was measured under normoxia with complete blood count (CBC, Hemavet 950FS, Hematology System, Draw Scientific Inc.; Miami, Florida).
Three independent sample preparations were performed to test different hypotheses. (1) Whole blood, (2) isolated intact red blood cells (RBC), and (3) purified hemoglobin (lysed samples).
For whole blood preparation, 75 μl of whole blood was mixed with pH 6.9 buffers at a ratio of 1:300 and incubated for 10 minutes at room temperature before deoxygenation.
For intact RBC sample preparation, whole blood was centrifuged at 500 g for 10 minutes in a microcentrifuge (model 21r; Thermo Scientific, Waltham, MA). The plasma and buffy coat were removed via aspiration. The RBCs were washed thrice with phosphate-buffered saline (PBS) at pH 7.4 (Gibco, Thermo Scientific, Waltham, MA). Next, 45 μL of the washed RBC suspension was diluted with a pH 6.9 buffer solution until the baseline hematocrit of 0.2% was achieved. Before deoxygenation, RBCs were incubated for 10 minutes in a pH 6.9 buffer solution at room temperature.
For purified hemoglobin preparation; lysed samples were prepared. Hemolysis was carried out by sonication for 30 seconds (Hemex Health; Portland, OR). Following hemolysis, the lysed cell suspension was added to various pH buffer solutions and centrifuged at 2000 g for 1 hour. Three hundred μl of the cell lysate was removed, and the supernatant was dis-carded. Cell lysates were diluted in 700 μl of the specific pH buffer solution and centrifuged at 2000 g for 1 hour. The 1 ml of pH buffer solution and cell lysate were filtered through a 0.02 μm Millipore membrane. The hemoglobin concentration in the lysed sample was determined using the hemoglobin [COMPOUND LEFT OUT] (HiCN) method and measured with a cuvette spectrophotometer at 540 nm. Each purified lysed sample was diluted with different pH solutions (pH 6.9, 7.2, 7.4, 8.0, and 10.0) to achieve a hemoglobin concentration of 2.8 mg dl^−1, determined as the baseline for lysed sample analysis.

purified hemoglobin = test: Circular dichroism spectra of purified hemoglobin at pH 6.9; type: physicochemical, human; settings: purified Hb, pH 6.9, 75 mmHg, deoxy
Text: The circular dichroism (CD) spectra, like the absorption spectra in the Soret and visible range, reveal the molecular structure of the hemoglobin globin and heme groups. […] CD spectra were collected between 190 and 650 nm wavelength on a Jasco J-1500 Spectropolarimeter with a 1 mm quartz cuvette and a scan rate of 4 seconds. The recorded spectra were background subtracted, accounting for a pH 6.9 buffer. The data was baselined and smoothed in the Spectra Manager software (Release 2018; Version 2.15.01).

Molecule: O=S([O-])S(=O)(=O)[O-].[Na+].[Na+] [Na2S2O5, sodium metabisulfite]
pO2 in whole blood with increased Na2S2O5 concentration ([1]; 0-0.08 M Na2S2O5, 4 minutes, pH 6.9, 7.2, 7.4, 8.0, HbAA and HbSS, n=5, FIG. 8): 20-40 mmHg
deoxygenation of hemoglobin ([1]; 0.053 M Na2S2O5): partial deoxygenation of hemoglobin
pO2 of deoxygenated samples ([1]; 0.053 M Na2S2O5): 75 mmHg
min. pO2 in HbSS whole blood ([1]; 0.053 M Na2S2O5, FIG. 8B): around 10 mmHg

Molecule: NC(=O)NO [hydroxyurea]
peak wavelength shift differences, oxygenated samples (HbSS patient whole blood; Hu HbSS, oxygenated, FIG. 11C): No significant differences
bathochromic shift differences between HbAA, HbAS and HbSS stratified by treatment (HbSS patient whole blood; hydroxyurea (Hu HbSS=15), deoxygenated 75 mmHg, pH 6.9, FIG. 11C): significant differences

difference in peak wavelength shift between deoxy HbSS and deoxy HbSS+Vox (HbSS; 63, 118, 211 and 421 μM Vox, Mann-Whitney, FIG. 4): Significate differences
peak wavelength shift of treated SCD samples compared to untreated SCD samples (HbSS; voxelotor, 3 hours incubation, varying concentrations): reduced peak wavelength shift
effect of increasing concentration on oxygen affinity of HbSS (HbSS; voxelotor, reduction in peak wavelength shift to that of HbAA, FIG. 4): increases the oxygen affinity of HbSS
Molecule: CC(C)n1nccc1-c1ncccc1COc1cccc(O)c1C=O [voxelotor]

Molecule: HbAA: healthy hemoglobin
peak wavelength, fully oxygenated (hemoglobin (HbAA, HbSS); 162 mmHg pO2, all pH values): 414 nm
Peak wavelength (hemoglobin (HbAA, HbSS); RBCs): 418.0 ± 0.56 (n = 15)
peak wavelength, repeatability (hemoglobin (HbAA, HbSS); User1, whole blood): 414.9±0.11
peak wavelength, repeatability (hemoglobin (HbAA, HbSS); User2, whole blood): 415.1±0.05
Peak wavelength (hemoglobin (HbAA, HbSS); purified hemoglobin): 417.2 ± 0.78 (n = 23)
area under the peak (hemoglobin (HbAA, HbSS); whole blood, FIG. 10I, pH 6.9, 75 mmHg pO2): 37.2±0.8
FWHM (hemoglobin (HbAA, HbSS); whole blood, FIG. 10J, pH 6.9, 75 mmHg pO2): 24.3±0.82
Peak wavelength (hemoglobin (HbAA, HbSS); whole blood): 415.3 ± 0.23 (n = 15)
CD Soret peak, partially deoxygenated (purified hemoglobin): 425 nm

Molecule: purified Hb: purified hemoglobin (lysed samples)
peak wavelength of purified Hb with increasing Hb concentration (hemoglobin (HbAA, HbSS); purified Hb 0.3-11.2 mg/dl, FIG. 13): 420±0.2
